From patent US8735426B2, “Vanilloid receptor ligands, pharmaceutical compositions containing them, process for making them and use thereof for treating pain and other conditions” (Gruenenthal GmbH, priority 2007, dated 2014)

Assays:
Assay type in all cases: cell-based
[1] = target: T1, vanilloid receptor 1 (VR1/TRPV1) (Rattus norvegicus, UniProt O35433); test: Functional FLIPR Ca2+ influx assay on vanilloid receptor 1, capsaicin stimulus (Pharmacological Method I); conditions: for inhibition at 1 µM / inhibition at 5 µM: capsaicin, read-out: inhibition (in percent), Rat Capsaicin
T1 construct: The vertebral column is removed from decapitated rats; from tissue; host or cells: primary cells from rat dorsal root ganglia (DRG)
Description: The agonistic or antagonistic action of the substances to be investigated on the vanilloid receptor 1 (VR1/TRPV1) of the species rat can be determined using the following assay. According to this assay, the Ca^2+ influx through the receptor channel is quantified with the aid of a Ca^2+-sensitive dye (Type Fluo-4, Molecular Probes Europe BV, Leiden Netherlands) in a fluorescent imaging plate reader (FLIPR, Molecular Devices, Sunnyvale, USA).
The vertebral column is removed from decapitated rats and this is laid directly in a cold, i.e. ice bath-surrounded, HBSS buffer (Hank's buffered saline solution, Gibco Invitrogen GmbH, Karlsruhe, Germany) and 1% by volume of an AA solution (antibiotics/antimycotics solution, PAA, Pasching, Austria) is added. The vertebral column is cut in two longitudinally and the vertebral canal is removed together with fascias. Subsequently, the dorsal root ganglia (DRGs) are removed and in turn stored in cold HBSS buffer to which 1% by volume of an AA solution has been added. The DRGs completely freed from blood residues and spinal nerves are in each case transferred to 500 μL of cold collagenase Type 2 (PAA, Pasching, Austria) and incubated at 37° C. for 35 minutes. […] On completion of incubation, the enzyme solution is carefully pipetted off and 500 μL of complete medium are added to the DRGs in each case. The DRGs are in each case repeatedly suspended, drawn through No. 1, No. 12 and No. 16 needles by means of a syringe and transferred to 50 mL Falcon tubes and these are filled to 15 mL with complete medium. The contents of each Falcon tube are in each case filtered through a 70 μm Falcon filter insert and centrifuged at 1200 rpm and room temperature for 10 minutes. The resulting pellet is in each case taken up in 250 μL of complete medium and the cell count is determined.
The number of cells in the suspension is adjusted to 3×10^5 per mL and in each case 150 μL of this suspension are added to a well of the cell culture plates coated as described above.
The cells are then loaded with 2 μM Fluo-4 and 0.01% by volume of Pluronic F127 (Molecular Probes Europe BV, Leiden Netherlands) in HBSS buffer (Hank's buffered saline solution, Gibco Invitrogen GmbH, Karlsruhe, Germany) at 37° C. for 30 min, washed 3 times with HBSS buffer and, after a further incubation of 15 minutes at room temperature, employed in the FLIPR assay for Ca^2+ measurement. […] Quantification is carried out by measuring the highest fluorescence intensity (FC, fluorescence counts) over time.
Initially, the compounds to be tested (10 μM) are pipetted onto the cells and the Ca^2+ influx is compared with the control (capsaicin 10 μM). Information is gained therefrom in % activation relative to the Ca^2+ signal after addition of 10 μM of capsaicin (CP). After incubation for 5 minutes, 100 nM of capsaicin are applied and the influx of Ca^2+ is likewise determined.
Desensitizing agonists and antagonists lead to suppression of the Ca^2+ influx. The percentage inhibition is calculated in comparison with the maximum inhibition achieved with 10 μM of capsaicin.
Triplicate determinations (n=3) are carried out and these are repeated in at least 3 independent experiments (N=4).
Based on the percentage displacement effected by different concentrations of the compounds of the general formula I to be tested, IC50 inhibition concentrations are calculated which cause 50 percent displacement of capsaicin.

vanilloid receptor (VR1) = target: T2, vanilloid receptor (VR1) (Homo sapiens, UniProt Q8NER1); test: Functional FLIPR Ca2+ influx assay in CHO-K1 cells transfected with the VR1 gene, capsaicin stimulus (Pharmacological Method II); conditions: read-out: inhibition (in percent), Human Capsaicin
T2 construct: expressed in transfected cells; host or cells: CHO-K1 cells (ECACC), stably transfected

[2] = target: vanilloid receptor 1 (VR1/TRPV1-Receptor) (Homo sapiens, UniProt Q8NER1); test: VR1 functional assay following pH-stimulus; conditions: for inhibition at 5 µM / inhibition at 10 µM: read-out: inhibition (in percent), Human following pH-stimulus
Chain of vanilloid receptor 1 (VR1/TRPV1-Receptor) (Q8NER1 whole entry): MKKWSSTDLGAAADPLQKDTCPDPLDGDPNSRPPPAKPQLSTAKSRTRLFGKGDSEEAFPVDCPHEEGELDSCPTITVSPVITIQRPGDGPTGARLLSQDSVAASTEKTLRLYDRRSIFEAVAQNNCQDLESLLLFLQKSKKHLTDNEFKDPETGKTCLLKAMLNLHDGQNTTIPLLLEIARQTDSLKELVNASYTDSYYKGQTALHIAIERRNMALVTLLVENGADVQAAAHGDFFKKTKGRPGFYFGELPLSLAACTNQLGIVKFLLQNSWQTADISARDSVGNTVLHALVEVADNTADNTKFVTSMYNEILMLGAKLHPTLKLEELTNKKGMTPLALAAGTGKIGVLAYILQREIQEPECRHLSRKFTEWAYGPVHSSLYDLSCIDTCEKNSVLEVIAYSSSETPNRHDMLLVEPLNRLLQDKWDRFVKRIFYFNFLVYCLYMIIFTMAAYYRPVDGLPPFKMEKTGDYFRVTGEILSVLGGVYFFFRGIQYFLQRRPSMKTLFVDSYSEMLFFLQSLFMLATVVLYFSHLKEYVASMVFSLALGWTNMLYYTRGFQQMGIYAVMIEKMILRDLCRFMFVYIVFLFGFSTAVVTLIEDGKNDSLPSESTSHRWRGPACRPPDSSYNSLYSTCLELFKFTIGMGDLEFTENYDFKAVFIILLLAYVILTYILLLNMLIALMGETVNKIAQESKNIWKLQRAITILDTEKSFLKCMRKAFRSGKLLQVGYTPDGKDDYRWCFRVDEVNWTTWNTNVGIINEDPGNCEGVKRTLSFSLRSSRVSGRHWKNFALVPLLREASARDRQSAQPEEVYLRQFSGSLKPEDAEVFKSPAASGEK

T2 sequence (Q8NER1 whole entry): as above
T1 sequence (O35433 whole entry): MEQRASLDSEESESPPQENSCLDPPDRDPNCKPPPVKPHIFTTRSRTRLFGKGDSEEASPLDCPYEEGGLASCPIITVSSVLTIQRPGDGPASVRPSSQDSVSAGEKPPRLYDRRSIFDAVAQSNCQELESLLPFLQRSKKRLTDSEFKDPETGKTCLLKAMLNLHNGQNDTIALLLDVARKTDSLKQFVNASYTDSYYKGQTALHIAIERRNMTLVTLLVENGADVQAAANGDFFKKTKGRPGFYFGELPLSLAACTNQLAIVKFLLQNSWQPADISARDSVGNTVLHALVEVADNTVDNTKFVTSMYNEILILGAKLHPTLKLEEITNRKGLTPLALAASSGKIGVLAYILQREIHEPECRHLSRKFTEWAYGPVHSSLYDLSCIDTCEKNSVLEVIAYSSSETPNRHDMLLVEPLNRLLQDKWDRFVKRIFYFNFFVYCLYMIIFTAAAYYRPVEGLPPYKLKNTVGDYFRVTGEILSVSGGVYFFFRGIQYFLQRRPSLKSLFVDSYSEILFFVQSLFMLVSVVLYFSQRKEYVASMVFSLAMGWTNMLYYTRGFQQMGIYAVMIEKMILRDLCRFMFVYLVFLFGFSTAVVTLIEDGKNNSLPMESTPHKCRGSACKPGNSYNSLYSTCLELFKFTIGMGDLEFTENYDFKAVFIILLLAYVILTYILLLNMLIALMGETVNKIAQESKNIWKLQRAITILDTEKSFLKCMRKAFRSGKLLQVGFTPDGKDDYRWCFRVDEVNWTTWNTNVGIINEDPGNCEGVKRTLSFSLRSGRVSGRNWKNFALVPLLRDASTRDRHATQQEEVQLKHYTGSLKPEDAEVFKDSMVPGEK

Structure (SMILES)	Ki ([1]; capsaicin stimulus)	inhibition at 1 µM (vanilloid receptor (VR1))	inhibition at 5 µM (vanilloid receptor (VR1))	IC50 [2]	inhibition at 1 µM [1]	inhibition at 5 µM [1]	inhibition at 5 µM [2]	inhibition at 10 µM [2]
CS(=O)(=O)Nc1ccc(C(C(=O)NCc2ccc(C(F)(F)F)nc2SC2CCCCC2)C2CCCCC2)cc1F (stereo not shown) [Example 2, 2-Cyclohexyl-N-((2-(cyclohexylthio)-6-(trifluoromethyl)pyridin-3-yl)methyl)-2-(3-fluoro-4-(methylsulfonamido)phenyl)acetamide]	0.0987 µM	2%	31%	1.39 µM				
CCC(C)(C(=O)NCc1ccc(C(F)(F)F)nc1SC1CCCCC1)c1ccc(NS(C)(=O)=O)c(F)c1 (stereo not shown) [Example 8, N-((2-(Cyclohexylthio)-6-(trifluoromethyl)pyridin-3-yl)methyl)-2-(3-fluoro-4-(methylsulfonamido)phenyl)-2-methylbutanamide]		0%	80%		26%	99%	0%	20%
CC1CCN(c2nc(C(F)(F)F)ccc2CNC(=O)C2(c3ccc(NS(C)(=O)=O)c(F)c3)CCCCC2)CC1 [Example 15, 1-(3-Fluoro-4-(methylsulfonamido)phenyl)-N-((2-(4-methylpiperidin-1-yl)-6-(trifluoromethyl)pyridin-3-yl)methyl)cyclohexanecarboxamide]		0%	33%		7%	69%	7%	32%
